Among the data in a melting point compilation (Tetko et al.; mined from patent text by program, amines drawn as free bases though some values may be those of a salt) are melting point values, retold here.

In general, melting point refers to the temperature, or range, at which the solid turns liquid.

Each structure is given as a SMILES string.

Take `CCOCCN(C(=O)Nc1ccc(C(=O)O)cc1)c1ccc2c(c1)C(C)(C)CCC2(C)C`: the melting point fell in the range of 82 to 85 °C.

In the case of `Cc1nc(-c2cc(CCc3ccccc3)no2)sc1C(=O)NCc1ccccc1`, the melting point was 114 to 115 °C. The compound `COC(=O)c1ccc2cc(Cl)ccc2c1` showed a melting point of 97 to 98 °C.

Turning to `Cc1cc2cc(CN3CCCC3)cnc2cc1NC(=O)c1ccc(-c2ccc(Cl)cc2)cc1`, the melting point was in the range of 214 to 217 °C.

On to `CCCCn1cc(C(=O)C(=O)O)c2cc(-c3cccc(OC)c3)ccc21`, for which the melting point was 108 to 109 °C. The same measure for `CC(C)c1nc(-c2ncn3c2COC(=O)c2ccccc2-3)no1`: 143 to 144 °C.

In turn, `COc1ccccc1C(NCC(=O)Nc1c(C(C)C)cccc1C(C)C)c1ccccc1` (configuration not stated) displayed a melting point of 133 to 134 °C.

On to `CC(CC(=O)O)c1ccc(O)cc1O` (configuration not stated), for which the melting point is 92 to 94 °C. On to `COc1cccc(C2(Cl)C(=O)Nc3ccc(Cl)cc32)c1` (configuration not stated), for which the melting point was 170 °C. The same measure for `Cc1ccc(OC(F)C(F)(F)F)c([N+](=O)[O-])c1[N+](=O)[O-]` (configuration not stated): 35 °C; for `CCOC(=O)C1CCCN(CCC2CCc3cc(OCc4ccc(-c5ccccc5)cc4)ccc3C2)C1` (configuration not stated): 97 to 98 °C; for `CC(C)(C)OC(=O)c1ncn2c1[C@@H]1CCCN1C(=O)c1c(I)cccc1-2`: 241 to 242 °C.

On to `CCc1cnc(CSc2cnc(NC(=O)c3ccccc3)s2)o1`, for which the melting point is 122 to 123 °C. The same measure for `CCOC(=O)c1ccnc(NC(=O)CCc2ccccc2)c1`: 107 to 108 °C; for `CCC1(CC)c2ccccc2C(CC)(CC)N1OC(C)(C)C#N`: 63 to 64 °C. The same measure for `Cc1c(C)c2c(c(C)c1NC(=O)CCCOCc1ccccc1)C(c1ccc(C(C)C)cc1)CO2` (configuration not stated): 85 to 86 °C; for `CC(C)(c1ccccc1)C(S)C(=O)O` (configuration not stated): 70 to 73 °C; for `Cc1ccc(OC2CCN(C(=O)C(=O)Nc3ccc4[nH]c(=O)[nH]c4c3)CC2)cc1`: 294 °C.

`CC1CC2OC2C=CC=CC(=O)Cc2c(Cl)c(O)cc(O)c2C(=O)O1` (configuration not stated): the melting point was determined as 195 °C. The compound `CCOCC(O)(c1cccnc1)C(C)c1ccc(Cl)cc1Cl` (configuration not stated) showed a melting point of 86 °C. As to `O=c1c2c([nH]n1-c1ccc(Cl)cc1)-c1ccccc1SC2`, the melting point lay within 235 to 237 °C. Turning to `CCOC(=O)c1n[nH]c2ncc(I)cc2c1=O`, the melting point was 238 to 242 °C. In the case of `CCCC1=C(C#N)C(c2ccccc2[N+](=O)[O-])c2c[nH]nc2N1` (configuration not stated), the melting point amounted to 216 °C.

`CC(C)CCOc1ccc(-n2cc(C(=O)O)cn2)cc1C#N`: the melting point was 210 to 211 °C. Turning to `CNc1ccc(C(C)(C)c2ccc(C(C)(C)c3ccc(NC)cc3)cc2)cc1`, the melting point lay in the range of 115 to 122 °C. The same measure for `COc1cc(C(=O)OC(C)(C)C)ccc1Cn1cc(C=O)c2ccc(C(=O)NCC3CCCC3)cc21`: 134 to 135 °C; for `CC(=O)N[C@H]1CC[C@H](CCN2CCN(c3nc(C)cc4c3CCO4)CC2)CC1`: 218 °C. The same measure for `CCC(=O)NCC(C)(C)c1ccc(C(=O)Nc2cn3cc(Cl)ccc3n2)cc1`: 225 to 227 °C; for `O=C(c1ccc(Cl)cc1)c1cc(-c2ccc(Cl)cc2)c(N2CCOCC2)s1`: 145 to 149 °C. Turning to `O=S(=O)(c1c[nH]cc1-c1ccc(Cl)cc1)C(F)(F)F`, the melting point was in the range of 138 to 141 °C. The same measure for `CCN(CC)C(=O)Oc1nc(-c2ccc(OC)cc2)cc2ccccc12`: 84 °C; for `O=C1OC(=Cc2c[nH]c3ccccc23)C(=O)N1Cc1cc(C(F)(F)F)cc(C(F)(F)F)c1`: 145 to 146 °C. In turn, `Cc1cc(C(=O)c2ccccc2)c(C)n1C(C)C(=O)Nc1ccccc1` (configuration not stated) came in with a melting point of 165 to 166 °C. The same measure for `C[C@@H]1CN(c2nccc(Oc3ccc(NC(=O)c4cc(F)cc(N5CCOCC5)c4)c4ccccc34)n2)C[C@H](C)O1`: 118 to 120 °C.

`O=C(Nc1ccc(N2C[C@H]3CN(C(=O)OCc4ccccc4)C[C@H]3C2)c(F)c1)OCc1ccccc1` registered a melting point of 121 to 122 °C. The same measure for `COC(=O)CCCN1CCC(NC(=O)c2ccccc2)CC1`: 116 °C.

In the case of `CCCCN(C1CCCOc2c(C)cc(Cl)cc21)S(=O)(=O)CC` (configuration not stated), the melting point was in the range of 83 to 87 °C.

As to `COc1ccc(-c2[nH]c3cn[nH]c(=O)c3c2Cl)cc1OCC1CC1`, the melting point is 256 to 258 °C. The same measure for `O=C1c2cc(S(=O)(=O)N3CCOCC3)ccc2SC12CC2`: 162 to 165 °C.

As for `COc1ccc(C2COc3cc(OC(C)=O)c(OC(C)=O)cc3C2)cc1` (configuration not stated), the melting point came out at 104 °C. The same measure for `O=C(NCc1ccn(-c2cc3nc(C(=O)O)c(=O)[nH]c3cc2C(F)(F)F)c1)Nc1ccccc1`: greater than 300 °C; for `CCC1(O)CCC2C3CCC4CC(=O)CC(C)C4(C)C3CCC21C` (configuration not stated): 152 °C. The same measure for `CN1C(=O)CSc2c(NCc3cccc(OCc4ccc5ccccc5n4)c3)cccc21`: 102 to 104 °C; for `COc1cc(-c2ccc(Cl)cc2)ccc1COCCc1cccc(NS(=O)(=O)C(F)(F)F)c1`: 66 to 68 °C. The same measure for `CNC(=C[N+](=O)[O-])NCc1ccc(Cl)cc1`: 219 to 220 °C. As for `CC12CCC3C(CCC4CC(O)CCC43C)C1CCC2C#N` (configuration not stated), the melting point fell in the range of 156 to 158 °C. The same measure for `CCCc1nc2c(N)nc3cc(OCc4cscn4)ccc3c2s1`: 218 to 220 °C. The same measure for `NC(=O)C1=C(S(=O)Cc2ccccc2)CCC1` (configuration not stated): 174 °C.

As for `O=C(O)CCCC(=O)S[C@@H]1CC(=O)N(Cc2ccc(Oc3ccc(F)cc3)nc2)C1`, the melting point was in the range of 132 to 133 °C. The same measure for `O=C(O)CCc1c(C=C2C(=O)Nc3ccccc32)[nH]c2c1CCCC2`: 263 to 265 °C; for `Cc1cn(S(=O)(=O)c2ccccc2)c2ccccc12`: 116 to 120 °C. `Cc1ccc(S(=O)(=O)OCC2CCc3ncsc3C2)cc1` (configuration not stated) had a melting point of 90 to 91 °C. The same measure for `O=C(Nc1cccc(O)c1)C(F)(F)F`: 133 to 135 °C; for `Brc1ccc(C#Cc2c3ccccc3c(C#Cc3ccc(Br)cc3)c3ccccc23)cc1`: 305 °C; for `CN1CCc2nc3ccc(Cl)cc3c(Cl)c2C1`: 88 to 89 °C. The same measure for `CN(CCNc1ccc2c3c(c4c(OCc5ccccc5)ccc(OCc5ccccc5)c4cc13)NN2CCN(CCO)Cc1ccccc1)Cc1ccccc1`: 147 to 149 °C; for `Cc1ccccc1-c1noc2c(Cl)c(OCC(=O)O)ccc12`: 179 to 181 °C; for `C(#CCN(Cc1ccccc1)Cc1ccccc1)CN(Cc1ccccc1)Cc1ccccc1`: 105 to 106 °C. In the case of `N#Cc1c(N)sc2ccccc2c1=O`, the melting point was in the range of 295 to 299 °C. The same measure for `CCN1C(=O)C(C)(C)C(=O)N(C)c2cc(CN(CCn3ccc4oc(C)cc4c3=O)Cc3cccnc3C#N)ccc21`: 114 to 118 °C.

Compound `COc1cc(Cc2nc(NC(C)(C)C)c3c(C)c(C#N)sc3n2)cc(OC)c1OC` yielded a melting point of 146 to 148 °C.

Regarding `CCCCCN(CCC12CC3CC(CC(C3)C1)C2)C(=O)NCCCc1ccnc2ccccc12`, the melting point was in the range of 80.2 to 102 °C. The same measure for `Nc1c2c(nc3ccccc13)-c1ccccc1CCC2`: 190 to 192 °C; for `Cc1cc(C)c2cccc(OCc3c(Cl)ccc(S(=O)(=O)N4CCC[C@H]4C(=O)N4CCN(C(=O)c5ccc(C(N)=NO)cc5)CC4)c3Cl)c2n1`: 161 °C; for `Nc1nc(N)c2ncn(/C=C3/CC3(CO)CO)c2n1`: 219 to 220 °C. Consider `COC(=O)c1ccc2cc(C(O)c3ccc4c(c3)C3(C)C5(C)CCC(C5)C3(C)O4)ccc2c1` (configuration not stated), for which the melting point was in the range of 140 to 141 °C. The same measure for `CCc1cc(CCc2nc3ccccc3o2)c(=O)[nH]c1C`: 155 to 156 °C. The same measure for `CC(=O)Nc1cc([N+](=O)[O-])c(C(=O)O)c([N+](=O)[O-])c1O`: 199 to 203 °C; for `O=C(Nc1cccc(CN2C(=O)[C@H]3CCC[C@H]3Nc3ccccc32)c1)OCc1ccccc1` (relative stereo): 179 to 180 °C; for `COc1cc(COc2cc(/C=C/C(=O)O)n(-c3ccccc3)n2)ccc1OCc1nc(-c2ccco2)oc1C`: 191 to 192 °C. The same measure for `O=C(NCCc1cccs1)C12CC3CC(CC1C3)C2`: 113 to 114 °C; for `CC1(C)c2ccc(C(O)CN3CCN(c4nsc5ccccc45)CC3)cc2C(C)(C)C1O` (configuration not stated): 88 to 97 °C.

`O=S(=O)(NCCn1ccnc1)c1ccc(Br)cc1` displayed a melting point of 165 to 167 °C. The same measure for `Cc1cc(-c2ccc(C(=O)O)cc2)ccn1`: 293 to 294 °C. The same measure for `CCN(CC)CCOC(=O)c1cnc2ccn(-c3ccccc3)n2c1=O`: 127 to 130 °C; for `CCOC(=O)COc1ccc(CN2C(=O)C3(COc4cc5c(cc43)OCCO5)c3ccccc32)cc1` (configuration not stated): 59 to 61 °C. In turn, `CCC(CC)c1ccc(Cl)c2nc3n(c12)CCN3c1ccc(Cl)cc1Br` displayed a melting point of 169 to 171 °C. The same measure for `CC(NO)C(=O)OC(C)(C)C` (configuration not stated): 69 to 70 °C; for `Fc1cccc([C@@H]2COCC(=S)N2)c1`: 124 to 125 °C. `O=C(O)c1cc(C(F)(F)F)ccc1O` gave a melting point of 149 to 151 °C.

On to `O=C(c1ccc(-n2nc(-c3ccccc3O)nc2-c2ccccc2O)cc1)N1CCOCC1`, for which the melting point lay in the range of 157 to 160 °C.

The compound `CC1CNC(CN(CC(=O)O)C(=O)c2ccccc2)c2ccccc21` (configuration not stated) came in with a melting point of 157 °C. Take `COc1ccc2c(c1)CCC(NCC(=O)O)C2` (configuration not stated): the melting point was 195 to 198 °C.

Compound `Cc1ncn(-c2cc(C)c3[nH]c(=O)ccc3c2)c1[N+](=O)[O-]` yielded a melting point of 306 to 309 °C. The same measure for `COc1ccc(-c2c(NCCc3cccc(C(F)(F)F)c3)c(=O)c2=O)cc1`: 220 to 222 °C.

`CCOC(=O)N(C(C)=O)c1ccc(OCc2nc3ccccc3s2)cc1`: the melting point is 155 to 160 °C. The same measure for `Cc1cc(C)c(C2C(=O)OC3(CCN(N(C)C)CC3)C2=O)c(C)c1` (configuration not stated): greater than 200 °C.
